In this test the test system is 485176-168-R4-J1-PDC spheroids with HUVEC/MSC, viability. Briefly: Anticancer human tumor 485176-168-R4-J1-PDC patient-derived pancreatic adenocarcinoma cell line growth inhibition [GQUAD]. The settings on record: for viability, T/C: stronger effect = lower value. The source says: DNA G-quadruplex Stabilizer Agents in Combinations in Complex Spheroids
A high-throughput screen of multi-cell type tumor spheroids was designed to identify active combinations of DNA G-quadruplex stabilizer agents and targeted small molecules. Complex spheroids include a stromal component modeled by human endothelial cells (HUVEC) and fibroblasts modeled by human mesenchymal stem cells (MSCs). The concentration ranges selected for each drug and investigational agent were based upon clinically achievable concentrations if the clinical Cmax of the agent was known.
Compounds. The drugs and investigational agents: pidnarulex (CX-5461; NSC782164), APTO-253 (NSC789042), BRACO-19 (NSC847499), peposertib (NSC802822), ceralasertib (NSC780249), elimusertib (NSC800525), camonsertib (NSC841442), AZD-1390 (NSC803789), olaparib (NSC753686), talazoparib (NSC767125), ART-558 (NSC835418), sotorasib (NSC818433), MRTX-1133 (NSC836407), SN-38 (NSC673596), topotecan (NSC609699), etoposide (NSC141540), doxorubicin (NSC123127), gemcitabine (NSC613327), 5-fluorouracil (NSC19893), paclitaxel (NSC125973), vemurafenib (NSC761431), panobinostat (NSC761190), R-306465 (JNJ-16241199; NSC773264), adavosertib (NSC754352), TP-3654 (NSC805149), carboplatin (NSC241240), KSQ-4279 (NSC840948), and staurosporine (NSC755774) were obtained from the National Cancer Institute (NCI) Developmental Therapeutics Program Chemical Repository (34). The FDA-approved anticancer drug set is available from the NCI Developmental Therapeutics Program. […] The stock solutions were prepared in dimethyl sulfoxide (DMSO, Sigma-Aldrich, St. Louis, MO, cat. D2650) at 800-fold the tested concentration and stored at -70 degrees C prior to their use. All drugs and investigational agents were tested over a range starting from a high concentration at or near the clinical Cmax and decreasing in half-log increments. If the clinical Cmax for an agent had not been determined, the highest concentration tested was 10 microM.
2.3 Cell Culture. All cells were maintained in an incubator at 37 degrees C and 5% CO2 with 95% humidity. The PDC lines were cultured according to standard operating procedures established by the NCI PDMR. All PDCs were thawed and cultured in Matrigel-coated flasks prepared with a working solution of 1X Ham's F-12 nutrient mix, without supplementation (Invitrogen, cat. 11765054), 100 U/mL penicillin-streptomycin (Invitrogen, cat. 15140122), and 2.5% Matrigel (Corning Inc., cat. 354248) for the first three passages. The 857933-349-R-J2-PDC line was cultured in 6C/Colon 1B media, which includes advanced DMEM/F-12 (Thermo Fisher Scientific, cat. 12634028), 10 mM HEPES (Thermo Fisher Scientific, cat. 15630080), 1X GlutaMAX supplement (Thermo Fisher Scientific, cat. 35050061), 0.1 mg/mL primocin (InvivoGen, cat. ant-pm-2), 10% defined fetal bovine serum, heat inactivated (HyClone Laboratories Inc., cat. SH30070.03HI), 50% L-WRN conditioned media (ATCC, cat. CRL-3276), 1.25 mM N-Acetyl-L-cysteine (Sigma-Aldrich, cat. A9165), 10 mM nicotinamide (Sigma-Aldrich, cat. N0636), 1X B-27 supplement (Thermo Fisher Scientific, cat. 17504044), 1X N-2 supplement (Thermo Fisher Scientific, cat. 17502048), 10 microM Y-27632 dihydrochloride (Tocris Bioscience, cat. 1254), and 50 ng/mL human EGF recombinant protein (Thermo Fisher Scientific, cat. PHG0311). The 485176-168-R4-J1-PDC line was cultured in Panc media, which includes all 6C/Colon 1B media components plus 100 ng/mL human FGF-10 (Thermo Fisher Scientific, cat. 100-26), 500 nM SB-431542 (Selleckchem, cat. S1067), and gastrin (Tocris, cat. 3006).
[…]

“And” between values parts separate entries of the source, which are not always exact repeats. Identical values can stand only once.
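Further: spheroids exposed to compounds for seven days before readout.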
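Wherever viability, T/C is given: percent viability relative to DMSO vehicle control wells as 100%.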

Consider `CC1COCCN1c1cc(C2(S(C)(=N)=O)CC2)nc(-c2ccnc3[nH]ccc23)n1` (stereo not drawn) + Cc1cnc(CNC(=O)c2c(=O)c3ccc(N4CCCN(C)CC4)nc3n3c2sc2ccccc23)cn1, for which the IC50 by setting is: (curve of first compound, second compound 0.0316 µM) 2310 nM; (curve of first compound, second compound 0.1 µM) 1010 nM; (curve of first compound, second compound 0.316 µM) 196 nM; (curve of first compound, second compound 1 µM) 53.5 nM; (curve of first compound, second compound 3.16 µM) < 31.6 nM; (curve of first compound, second compound 10 µM) < 31.6 nM. For the same compound, the viability, T/C (second compound 0.0316 µM, first compound 0.0316 µM) is 96.4%; the viability, T/C (second compound 0.0316 µM, first compound 0.1 µM) was 82.9%; the viability, T/C (second compound 0.0316 µM, first compound 0.316 µM) was 89.2%; the viability, T/C (second compound 0.0316 µM, first compound 1 µM) is 44.8%; the viability, T/C (second compound 0.0316 µM, first compound 3.16 µM) is 59%; the viability, T/C (second compound 0.0316 µM, first compound 10 µM) is 15.1%. Also, the viability, T/C is, setting by setting: (second compound 0.1 µM, first compound 0.0316 µM) 73.8%; (second compound 0.1 µM, first compound 0.1 µM) 82.6%; (second compound 0.1 µM, first compound 0.316 µM) 53.6%; (second compound 0.1 µM, first compound 1 µM) 39.7%; (second compound 0.1 µM, first compound 3.16 µM) 51%; (second compound 0.1 µM, first compound 10 µM) 12.1%. The viability, T/C (second compound 0.316 µM, first compound 0.0316 µM) was 54%; the viability, T/C (second compound 0.316 µM, first compound 0.1 µM) was 62.7%; the viability, T/C (second compound 0.316 µM, first compound 0.316 µM) is 47.2%; the viability, T/C (second compound 0.316 µM, first compound 1 µM) was 28.2%; the viability, T/C (second compound 0.316 µM, first compound 3.16 µM) is 36.4%; the viability, T/C (second compound 0.316 µM, first compound 10 µM) was 11.9%. For the same compound, the viability, T/C reads like this: (second compound 1 µM, first compound 0.0316 µM) 50.3%; (second compound 1 µM, first compound 0.1 µM) 51.5%; (second compound 1 µM, first compound 0.316 µM) 41.6%; (second compound 1 µM, first compound 1 µM) 28.9%; (second compound 1 µM, first compound 3.16 µM) 36.8%; (second compound 1 µM, first compound 10 µM) 11.9%. In addition, the viability, T/C by setting is: (second compound 3.16 µM, first compound 0.0316 µM) 45.8%; (second compound 3.16 µM, first compound 0.1 µM) 41.6%; (second compound 3.16 µM, first compound 0.316 µM) 38.5%; (second compound 3.16 µM, first compound 1 µM) 23.9%; (second compound 3.16 µM, first compound 3.16 µM) 28.7%; (second compound 3.16 µM, first compound 10 µM) 11%. Also, the viability, T/C is 41.4% (second compound 10 µM, first compound 0.0316 µM); 36.7% (second compound 10 µM, first compound 0.1 µM); 37.1% (second compound 10 µM, first compound 0.316 µM); 27.5% (second compound 10 µM, first compound 1 µM); 28.1% (second compound 10 µM, first compound 3.16 µM); 12.8% (second compound 10 µM, first compound 10 µM).
For `CC1COCCN1c1cc(C2(O)CC3CCC(C2)O3)c2cnn(-c3ccn[nH]3)c2n1` (stereo not drawn), the viability, T/C reads like this: (compound 0.0316 µM) 68% and 73.8% and 81.9%; (compound 0.1 µM) 32.8% and 40.7% and 53.4%; (compound 0.316 µM) 11.7% and 19.7% and 16.1%; (compound 1 µM) 8.14% and 9.02% and 10.2%; (compound 3.16 µM) 8.91% and 11.7% and 10.2%; (compound 10 µM) 9.41% and 8.55% and 9.34%. The IC50 (curve of compound) was 57 nM and 72.7 nM and 111 nM.
Consider `CCCS(=O)(=O)Nc1ccc(F)c(C(=O)c2c[nH]c3ncc(-c4ccc(Cl)cc4)cc23)c1F`, for which the viability, T/C runs as follows: (compound 0.0316 µM) 84.4% and 98.5% and 96.2%; (compound 0.1 µM) 94.7% and 85.4% and 64.8%; (compound 0.316 µM) 89.7% and 87.6% and 85%; (compound 1 µM) 82% and 83.2% and 77%; (compound 3.16 µM) 82.2% and 75.4% and 73.2%; (compound 10 µM) 71.2% and 70.3% and 66.2%. In addition, under “curve of compound”, the IC50 is > 10000 nM.
On to `CC(=O)O[C@H]1C(=O)[C@@]2(C)[C@H]([C@H](OC(=O)c3ccccc3)[C@]3(O)C[C@H](OC(=O)[C@H](O)[C@@H](NC(=O)c4ccccc4)c4ccccc4)C(C)=C1C3(C)C)[C@]1(OC(C)=O)CO[C@@H]1C[C@@H]2O`, for which the viability, T/C was 33.5% and 33.7% and 29.3% (compound 0.0316 µM); 10.2% and 14.9% and 9.73% (compound 0.1 µM); 12.3% and 11.3% and 10.6% (compound 0.316 µM); 10.9% and 13.4% and 9.36% (compound 1 µM); 11% and 13.5% and 10.1% (compound 3.16 µM); 13.7% and 11.4% and 9.37% (compound 10 µM). In addition, the IC50 (curve of compound) was < 31.6 nM.

By IC50 is commonly meant the concentration that inhibits the measured activity by half. Broadly, the viability, T/C is the result in the treated group divided by that in the control group, in per cent.

The values above are taken from PubChem BioAssay AID2060509 (Molecular Pharmacology Branch, DTP, NCI, 2025).
